The first assay concerns the target influenza A virus minigenome (PB2, PB1, PA, NP proteins) (UniProt P04665). Type of assay: cell-based. The settings on record: read-out: RNP_ Hubei B IC50.
Sequence of influenza A virus minigenome (PB2, PB1, PA, NP proteins) (P04665 whole entry): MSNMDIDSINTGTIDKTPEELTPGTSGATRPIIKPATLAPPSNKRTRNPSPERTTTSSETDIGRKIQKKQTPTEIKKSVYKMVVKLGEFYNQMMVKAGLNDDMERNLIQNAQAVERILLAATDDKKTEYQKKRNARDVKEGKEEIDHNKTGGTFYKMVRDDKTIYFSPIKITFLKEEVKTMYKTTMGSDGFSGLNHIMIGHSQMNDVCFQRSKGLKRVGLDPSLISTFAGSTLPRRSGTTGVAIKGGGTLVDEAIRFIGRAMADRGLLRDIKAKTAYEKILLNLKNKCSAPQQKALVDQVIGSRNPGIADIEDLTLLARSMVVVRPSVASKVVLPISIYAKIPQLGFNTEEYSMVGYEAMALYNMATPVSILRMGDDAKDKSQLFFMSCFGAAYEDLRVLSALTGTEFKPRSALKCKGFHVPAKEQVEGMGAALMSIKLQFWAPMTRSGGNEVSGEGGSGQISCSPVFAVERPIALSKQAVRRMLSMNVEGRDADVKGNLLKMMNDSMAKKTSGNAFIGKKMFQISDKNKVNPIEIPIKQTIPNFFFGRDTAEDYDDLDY
Consider `NC(=O)c1cc(-c2ccc(OCC3COCC(C(F)F)O3)cc2)c(C(F)(F)F)[nH]c1=O` (single isomer, unassigned) [Example 349, 5-(4-((6-(difluoromethyl)-1,4-dioxan-2-yl)methoxy)phenyl)-2-oxo-6-(trifluoromethyl)-1,2-dihydropyridine-3-carboxamide], for which the IC50 lay within 5 to 10 µM.

In the case of `COC1(C2COCC(COc3ccc(-c4cc(C(N)=O)c(=O)[nH]c4C(F)(F)F)cc3)O2)CC1` (single isomer, unassigned) [Example 353, 5-(4-((6-(1-methoxycyclopropyl)-1,4-dioxan-2-yl)methoxy)phenyl)-2-oxo-6-(trifluoromethyl)-1,2-dihydropyridine-3-carboxamide], the IC50 lay within 5 to 10 µM. Still for that read-out and setting: under `CC(C)(O)C1COCC(COc2ccc(-c3cc(C(N)=O)c(=O)[nH]c3C(F)(F)F)cc2)O1` (single isomer, unassigned) [Example 354, 5-(4-((6-(2-hydroxypropan-2-yl)-1,4-dioxan-2-yl)methoxy)phenyl)-2-oxo-6-(trifluoromethyl)-1,2-dihydropyridine-3-carboxamide] stands 5 to 10 µM; under `CC(C)(O)C1COCC(COc2ccc(-c3cc(C(N)=O)c(=O)[nH]c3C(F)(F)F)cc2)O1` (single isomer, unassigned) [Example 355, 5-(4-((6-(2-hydroxypropan-2-yl)-1,4-dioxan-2-yl)methoxy)phenyl)-2-oxo-6-(trifluoromethyl)-1,2-dihydropyridine-3-carboxamide], 5 to 10 µM; under `CC1(C2COCC(COc3ccc(-c4cc(C(N)=O)c(=O)[nH]c4C(F)(F)F)cc3)O2)CC1` (single isomer, unassigned) [Example 356, 5-(4-((6-(1-methylcyclopropyl)-1,4-dioxan-2-yl)methoxy)phenyl)-2-oxo-6-(trifluoromethyl)-1,2-dihydropyridine-3-carboxamide], 5 to 10 µM. Same read-out and setting: under `CC(F)(F)C1COCC(COc2ccc(-c3cc(C(N)=O)c(=O)[nH]c3C(F)(F)F)cc2)O1` (single isomer, unassigned) [Example 358, 5-(4-((6-(1,1-difluoroethyl)-1,4-dioxan-2-yl)methoxy)phenyl)-2-oxo-6-(trifluoromethyl)-1,2-dihydropyridine-3-carboxamide] stands 5 to 10 µM; under `CC(F)(F)C1COCC(COc2ccc(-c3cc(C(N)=O)c(=O)[nH]c3C(F)(F)F)cc2)O1` (single isomer, unassigned) [Example 359, 5-(4-((6-(1,1-difluoroethyl)-1,4-dioxan-2-yl)methoxy)phenyl)-2-oxo-6-(trifluoromethyl)-1,2-dihydropyridine-3-carboxamide], 5 to 10 µM.

`CCOCC1COCC(COc2ccc(-c3cc(C(N)=O)c(=O)[nH]c3C(F)(F)F)cc2)O1` (single isomer, unassigned) [Example 361, 5-(4-((6-(ethoxymethyl)-1,4-dioxan-2-yl)methoxy)phenyl)-2-oxo-6-(trifluoromethyl)-1,2-dihydropyridine-3-carboxamide]: the IC50 is 5 to 10 µM.

The assay is the same for the next values; noted with them: read-out: RNP_Hubei B.
Consider `NC(=O)c1cc(-c2ccc(OCC3COCC(C(F)F)O3)cc2)c(C(F)(F)F)[nH]c1=O` (single isomer, unassigned) [Example 348, 5-(4-((6-(difluoromethyl)-1,4-dioxan-2-yl)methoxy)phenyl)-2-oxo-6-(trifluoromethyl)-1,2-dihydropyridine-3-carboxamide], for which the IC50 was in the range of 5 to 10 µM. Same read-out and setting: under `CC1(C2COCC(COc3ccc(-c4cc(C(N)=O)c(=O)[nH]c4C(F)(F)F)cc3)O2)CC1` (single isomer, unassigned) [Example 357, 5-(4-((6-(1-methylcyclopropyl)-1,4-dioxan-2-yl)methoxy)phenyl)-2-oxo-6-(trifluoromethyl)-1,2-dihydropyridine-3-carboxamide] stands 5 to 10 µM; under `CCOCC1COCC(COc2ccc(-c3cc(C(N)=O)c(=O)[nH]c3C(F)(F)F)cc2)O1` (single isomer, unassigned) [Example 360, 5-(4-((6-(ethoxymethyl)-1,4-dioxan-2-yl)methoxy)phenyl)-2-oxo-6-(trifluoromethyl)-1,2-dihydropyridine-3-carboxamide], 5 to 10 µM.

The values above are taken from US20240360082A1, “SUBSTITUTED PYRIDONE COMPOUNDS USEFUL TO TREAT ORTH[…]” (priority 2021, published 2024).
